ChEMBL document CHEMBL1129844, “Mechanism-based inactivation of l-pipecolate oxidase by a sulfur-containing substrate analog, 5-thia-l-pipecolic acid” (Bioorg Med Chem Lett, 1997)
Several values for one entry are separate records, joined by “and”; a condition that tells them apart may be missing. Equal entries are not always repeated.

T1: Peroxisomal sarcosine oxidase (Homo sapiens, UniProt Q9P0Z9)
T1 sequence (Q9P0Z9 whole entry): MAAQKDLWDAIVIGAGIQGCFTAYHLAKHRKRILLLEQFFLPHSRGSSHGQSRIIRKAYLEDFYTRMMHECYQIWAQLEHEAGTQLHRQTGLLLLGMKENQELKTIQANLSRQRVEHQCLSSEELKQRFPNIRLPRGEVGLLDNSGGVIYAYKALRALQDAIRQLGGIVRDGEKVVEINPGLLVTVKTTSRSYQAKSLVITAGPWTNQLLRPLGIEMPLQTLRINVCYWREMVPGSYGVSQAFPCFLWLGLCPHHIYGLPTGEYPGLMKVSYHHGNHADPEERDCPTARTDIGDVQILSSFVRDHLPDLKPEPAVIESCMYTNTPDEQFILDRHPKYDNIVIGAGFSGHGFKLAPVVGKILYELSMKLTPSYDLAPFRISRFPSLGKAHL

T2: Peroxisomal sarcosine oxidase (Homo sapiens) (UniProt Q9P0Z9)
T2 sequence (whole entry): T1 sequence (Q9P0Z9 whole entry)

B1: Peroxisomal sarcosine oxidase (Homo sapiens), Q9P0Z9 (protein)
chain: T1 sequence (Q9P0Z9 whole entry)

Legend:
[1] = target: T1, Peroxisomal sarcosine oxidase; experiment: Time and concentration dependent inhibition of L-pipecolate oxidase was determined by the compound; design: species or system Cercopithecidae
[2] = target: T2, Peroxisomal sarcosine oxidase (Homo sapiens); experiment: Kinetic parameter was evaluated for L-pipecolate oxidase in Frozen Rhesus monkey liver ith L-PA as substrate; type: tissue-based; conditions: Cercopithecidae, target entry is the homologue from another species
[3] = target: T2, Peroxisomal sarcosine oxidase (Homo sapiens); experiment: Kinetic parameter was evaluated for L-pipecolate oxidase was expressed as K observed; conditions: Cercopithecidae
[4] = target: T2, Peroxisomal sarcosine oxidase (Homo sapiens); experiment: Kinetic parameter was evaluated for L-pipecolate oxidase; conditions: Cercopithecidae
[5] = Partition ratio was calculated from the ratio of kcat/kinact
[6] = target: T2, Peroxisomal sarcosine oxidase (Homo sapiens); experiment: (§1) Kinetic parameter was evaluated for L-pipecolate oxidase using the peroxidase-coupled assay; conditions: Cercopithecidae
[7] = substrate: O=C(O)[C@@H]1CCSCN1; experiment: as §1; conditions: Cercopithecidae

Row | Molecule | Ki [1] [mM] | k cat [2] [s⁻¹] | k obs [3] | K inact [4] [min⁻¹] | Ratio [5] | k cat [6] [s⁻¹] | Km [7] [µM]
1 | O=C(O)[C@@H]1CCSCN1 | 36 | 0.13 | 4.01e-05 s⁻¹ and 4.26e-05 s⁻¹ | 0.06 | 85 | 0.085 | –
2 | B1 | – | – | – | – | – | – | 940
